Laboratory results: patent US10308608B2, “Histone deacetylase inhibitors” (BIOMARIN PHARMACEUTICAL INC., priority 2015, dated 2019)
Counter-ions that a name gives are not always drawn.

Test system: Frataxin (FXN) mRNA
Assay: Effect of HDAC inhibitors on frataxin (FXN) mRNA expression, qRT-PCR in compound-treated iPSC derived neuronal cells
Format: cell-based
Conditions: iPSC, 24 h, compound concentration of 0.625 μM, 24 h incubation, read-out: FXN mRNA fold induction
Procedure, shortened: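 iPSC-derived neuronal cells, differentiated 16 days without EGF/bFGF, treated with compound 24 h. FXN mRNA measured by one-step SYBR Green qRT-PCR; fold induction reported at 0.625 μM compound, binned A<1, 1<B<2, 2<C<3, 3<D<5, E>5.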

`Nc1ccccc1NC(=O)c1ccc(OC2CCCN(C3COC3)CC2)cc1` (centres unmarked) [Compound 124, N-(2-aminophenyl)-4-((1-(oxetan-3-yl)azepan-4-yl)oxy)benzamide] and `Nc1ccccc1NC(=O)c1ccc(OC2CCN(C3COC3)CC2)cc1` [Compound 132, N-(2-aminophenyl)-4-((1-(oxetan-3-yl)piperidin-4-yl)oxy)benzamide] fall in the same range of fold induction at 0.625 µM: 1 to 2 for the first, 1 to 2 for the second.

`Nc1ccccc1NC(=O)c1ccc(OC2CN(C3CC3)C2)cc1` [Compound 125, N-(2-aminophenyl)-4-((1-cyclopropylazetidin-3-yl)oxy)benzamide] and `Nc1ccccc1NC(=O)c1ccc(O[C@H]2CCN(C3CC3)C2)cc1` [Compound 127, (S)-N-(2-aminophenyl)-4-((1-cyclopropylpyrrolidin-3-yl)oxy)benzamide dihydrochloride] fall in the same range of fold induction at 0.625 µM: 1 to 2 for the first, 1 to 2 for the second.

`Nc1ccccc1NC(=O)c1ccc(OC2CN(C3COC3)C2)cc1` [Compound 126, N-(2-aminophenyl)-4-((1-(oxetan-3-yl)azetidin-3-yl)oxy)benzamide] and `Nc1ccccc1NC(=O)c1ccc(O[C@H]2CCN(C3COC3)C2)cc1` [Compound 128, (S)-N-(2-aminophenyl)-4-((1-(oxetan-3-yl)pyrrolidin-3-yl)oxy)benzamide] fall in the same range of fold induction at 0.625 µM: 1 to 2 for the first, 1 to 2 for the second.

`Nc1ccccc1NC(=O)c1ccc(O[C@@H]2CCN(C3CC3)C2)cc1` [Compound 129, (R)-N-(2-aminophenyl)-4-((1-cyclopropylpyrrolidin-3-yl)oxy)benzamide] and `Nc1ccccc1NC(=O)c1ccc(O[C@@H]2CCN(C3COC3)C2)cc1` [Compound 130, (R)-N-(2-aminophenyl)-4-((1-(oxetan-3-yl)pyrrolidin-3-yl)oxy)benzamide] fall in the same range of fold induction at 0.625 µM: 1 to 2 for the first, 1 to 2 for the second.

First: Nc1ccccc1NC(=O)c1ccc(OC2CCN(C3CC3)CC2)cc1 [Compound 131, N-(2-aminophenyl)-4-((1-cyclopropylpiperidin-4-yl)oxy)benzamide dihydrochloride]
Second: Nc1ccccc1NC(=O)c1ccc(NC2CCN(C3CC3)CC2)cc1 [Compound 140, N-(2-aminophenyl)-4-((1-cyclopropylpiperidin-4-yl)amino)benzamide trihydrochloride trihydrochloride]
The fold induction at 0.625 µM of the first is lower: 1 to 2 for the first, 2 to 3 for the second.

First: Nc1ccccc1NC(=O)c1ccc(OC2CCN(CC34CC5CC(CC(C5)C3)C4)CC2)cc1 [Compound 133, 4-((1-(((3r,5r,7r)-adamantan-1-yl)methyl)pipendin-4-yl)oxy)-N-(2-aminophenyl)benzamide dihydrochloride]
Second: Nc1ccccc1NC(=O)c1ccc(N[C@H]2CCN(C3CC3)C2)cc1 [Compound 136, (S)-N-(2-aminophenyl)-4-((1-cyclopropylpyrrolidin-3-yl)amino)benzamide]
The fold induction at 0.625 µM of the first is higher: 2 to 3 for the first, 1 to 2 for the second.

Compared with `Nc1ccccc1NC(=O)c1ccc(NC2CN(C3CC3)C2)cc1` [Compound 134, N-(2-aminophenyl)-4-((1-cyclopropylazetidin-3-yl)amino)benzamide trihydrochloride], `Nc1ccccc1NC(=O)c1ccc(N[C@@H]2CCN(C3CC3)C2)cc1` [Compound 138, (R)-N-(2-aminophenyl)-4-((1-cyclopropylpyrrolidin-3-yl)amino)benzamide trihydrochloride] is higher in fold induction at 0.625 µM: 1 to 2 for the first, 2 to 3 for the second.

`Nc1ccccc1NC(=O)c1ccc(NC2CN(C3COC3)C2)cc1` [Compound 135, N-(2-aminophenyl)-4-((1-(oxetan-3-yl)azetidin-3-yl)amino)benzamide] and `Nc1ccccc1NC(=O)c1ccc(N[C@H]2CCN(C3COC3)C2)cc1` [Compound 137, (S)-N-(2-aminophenyl)-4-((1-(oxetan-3-yl)pyrrolidin-3-yl)amino)benzamide] fall in the same range of fold induction at 0.625 µM: 1 to 2 for the first, 1 to 2 for the second.

In the case of `Nc1ccccc1NC(=O)c1ccc(N[C@@H]2CCN(C3COC3)C2)cc1` [Compound 139, (R)-N-(2-aminophenyl)-4-((1-(oxetan-3-yl)pyrrolidin-3-yl)amino)benzamide tris(2,2,2-trifluoroacetate)], the fold induction at 0.625 µM is reported as 1 to 2.
